According to US6107271A, “Neuroactive peptides” (NYXIS Neuro Therapies, Inc., priority 1998, dated 2000):
Like-named read-outs stand apart in the source and are kept apart here. Positions of bridges follow the written chain, without caps; N, C: chain ends. Residues, ends and D or L forms follow the SMILES beside them. No end group written: not given here.

What was measured:
[1] = target: T1, NMDA receptor complex, glycine co-agonist site (Rattus norvegicus, UniProt P35439); assay type: biochemical; conditions: rat hippocampus membranes, in the presence of 7-chlorokynurenic acid, ± S.E.M.
T1 construct: Crude synaptic membranes used in the assay were prepared using rat hippocampal tissue; from tissue; host or cells: rat hippocampus, crude synaptic membranes
Description: Polypeptides or amino acid compositions of the instant invention were tested for the ability to mimic the glycine co-agonist effect on the NMDA receptor using a previously validated [^3 H]MK-801 binding assay. This functional assay takes advantage of the fact that increased [^3 H]MK-801 binding by NMDA receptors can only occur upon receptor-binding channel opening. This is because the MK-801 binding site is located inside the ionophore of the NMDA receptor complex, and is thus only accessible upon the opening of the receptor complex channel. Thus increased binding of [^3 H]MK-801 is directly correlated with increased channel opening, in this assay, triggered by the binding of the polypeptides or amino acid compositions of the instant invention to the glycine co-agonist binding site.
To further refine the assay, a selective antagonist of the glycine binding site of the NMDA receptor-channel complex is added to the assay. The normal action of 7-chlorokynurenic acid is to selectively bind to the glycine site, and inhibit NMDA receptor channel opening, and thus inhibit the binding of [^3 H]MK-801 to the NMDA receptor complex.
Crude synaptic membranes used in the assay were prepared using rat hippocampal tissue (male Sprague-Dawly rats) and extensively washed using the procedures described previously (Haring et al., 1991, J. Neurochem. 57:323-331). Briefly, tissue which has been stored at -80-- C is homogenized in ice cold 5 mM Tris (pH 7.4) using a Brinkman Polytron® and then pelleted by centrifugation at 48,000 g for 20 minutes. The resulting supernatant is discarded, and the membranes washed three times in cold buffer. Pellets are then resuspended in 5 mM EDTA, 15 mM Tris (pH 7.4), and incubated for one hour at 37-- C. The membrane suspensions are then pelleted by centrifugation at 48,000g for 20 min and stored at -80-- C until use in the assay.
Frozen pellets are thawed at room temperature and washed three times by resuspension in 5 mM Tris (pH 7.4) and centrifugation. Final pellets are suspended at concentrations of 2 to 3 mg/ml in 5 mM Tris buffer (pH 7.4). Binding reactions are initiated by the addition of 200-- g of freshly prepared membranes to reaction mixtures (about 1 ml final volume) containing 1 nM [^3 H]MK-801 at 25-- C in the presence of a range of peptide concentrations and 60-- M 7-chlorokynurenic acid. Non-specific binding is determined using 10-- M unlabelled MK-801. Binding reactions are terminated by filtration through a Brandel 24-well cell harvester onto Whatman GF/B glass filters that have been presoaked in 0.25% polyethyleneimine for 30 minutes.

[2] = target: T1, NMDA receptor complex, glycine co-agonist site; assay type: biochemical; conditions: in the presence of 10 μM L-glutamate, ± S.E.M.
[3] = target: T2, mouse NMDA receptor subunits z1 and e1 expressed in oocytes (Mus musculus, UniProt P35438); experiment: Electrophysiological NMDA specific activity assay, two-electrode voltage clamp in oocytes; assay type: cell-based
T2 construct: expressed in transfected cells
Description: Electrophysiological recordings are made with two-electrode voltage-clamp techniques, and standard oocyte expression system preparations (see Leonard and Kelso, 1990, Neuron 4:53-60; Kelso et al., 1992, J. Physiology 449:705-718). Oocytes are isolated and injected with mRNA for mouse NMDA receptor subunits: 70 nl of z1 (-- 1) RNA is co-injected with an equal volume of e1 (-- 1) RNA. After incubation for two days, recordings are made while clamping membrane potential at -80 mV. The standard recording solution contains 95 mM NaCl, 2 mM KCl, 3.8 mM BaCl2, and 5 mM HEPES. Mg^2+ is omitted because it blocks NMDA currents at some potentials; Ca^2+ is omitted because it can trigger the oocyte's endogenous Ca^2+ -dependent chloride current. Responses are evoked by the continuous perfusion of 3-5 ml of NMDA containing solutions. The recording chamber has a volume of about […].

[4] = test system: rabbits; conditions: peripheral injections; cited from earlier work

Compound | [3H]MK-801 binding, percentage of control binding ([1]; 10^-5 M peptide) [%] | [3H]MK-801 binding, percentage of control binding ([1]; 10^-6 M peptide) [%] | [3H]MK-801 binding, percentage of control binding ([1]; 10^-7 M peptide) [%] | [3H]MK-801 binding, percentage of control binding ([1]; 10^-8 M peptide) [%] | [3H]MK-801 binding, percentage of control binding ([1]; 10^-9 M peptide) [%] | [3H]MK-801 binding, percentage of control binding ([2]; 10^-5 M peptide) [%] | [3H]MK-801 binding, percentage of control binding ([2]; 10^-6 M peptide) [%] | [3H]MK-801 binding, percentage of control binding ([2]; 10^-7 M peptide) [%] | [3H]MK-801 binding, percentage of control binding ([2]; 10^-8 M peptide) [%] | NMDA current (FIG. 3B) ([3]; NMDA alone, same cell) | NMDA current (FIG. 3B) ([3]; 100-- M NMDA with 10-- M glycine, -80 mV) | learning rates in trace eyeblink conditioning [4]
VYYSQQHYSTPPT [NT-4] | 109 ± 10 | 110 ± 1 | 116 ± 2 | 106 ± 6 | 106 ± 2 | – | – | – | – | – | – | –
QQHYSTPPTFGGG [NT-8] | 115 ± 6 | 107 ± 6 | 108 ± 4 | 110 ± 5 | 105 ± 7 | – | – | – | – | – | – | –
C[C@@H](O)[C@H](N)C(=O)N1CCC[C@H]1C(=O)N1CCC[C@H]1C(=O)O [NT-14, Thr-Pro-Pro] (H-Thr-Pro-Pro-OH) | 95 ± 4 | 98 ± 8 | 96 ± 5 | 101 ± 1 | 89 ± 6 | – | – | – | – | – | – | –
O=C(O)[C@@H]1CCCN1C(=O)[C@@H]1CCCN1 [NT-16, Pro-Pro] (H-Pro-Pro-OH) | 117 ± 12 | 103 ± 3 | 97 ± 6 | 89 ± 8 | 83 ± 9 | – | – | – | – | – | – | –
QQHYSTPPTFGGGTKLE [NT-9] | 120 ± 3 | 112 ± 10 | 125 ± 5 | 126 ± 7 | 104 ± 12 | – | – | – | – | – | – | –
SASYRYT [NT-2, Ser-Ala-Ser-Tyr-Arg-Tyr-Thr] | – | – | – | – | – | 77 ± 12 | 106 ± 4 | 109 ± 15 | 80 ± 9 | – | – | –
QQHYSTPPT [NT-3] | 90 ± 1 | 111 ± 11 | 121 ± 4 | 123 ± 0 | 112 ± 20 | – | – | – | – | – | – | –
C[C@@H](O)[C@H](N)C(=O)N1CCC[C@H]1C(=O)N[C@H](C(=O)O)[C@@H](C)O [NT-17, Thr-Pro-Thr] (H-Thr-Pro-Thr-OH) | 119 ± 21 | 117 ± 14 | 128 ± 9 | 125 ± 17 | 122 ± 23 | – | – | – | – | – | – | –
QQHYS [NT-12, Gln-Gln-His-Tyr-Ser] | 106 ± 2 | 106 ± 9 | 95 ± 7 | 104 ± 10 | 95 ± 21 | – | – | – | – | – | – | –
SVQAELDLAVYYSQQHYSTPPT [NT-6] | 91 ± 7 | 96 ± 1 | 101 ± 15 | 101 ± 9 | 95 ± 6 | – | – | – | – | – | – | –
FTISSVQAELDLAVYYSQQHYSTPPT [NT-7] | 100 ± 3 | 104 ± 0 | 97 ± 1 | 103 ± 4 | 96 ± 4 | – | – | – | – | – | – | –
EDLAVYYSQQHYSTPPT [NT-5] | 112 ± 4 | 106 ± 2 | 114 ± 2 | 100 ± 9 | 109 ± 8 | – | – | – | – | – | – | –
C[C@@H](O)[C@@H]1NC(=O)[C@@H]2CCCN2C(=O)[C@@H]2CCCN2C(=O)[C@H]([C@@H](C)O)NC(=O)[C@H](CO)NC(=O)[C@H](Cc2ccc(O)cc2)NC(=O)[C@H](Cc2c[nH]cn2)NC(=O)[C@H](CCC(N)=O)NC(=O)[C@H](CCC(N)=O)NC(=O)[C@@H](N)CSSC[C@@H](C(=O)O)NC1=O [NT-10] (H-CQQHYSTPPTC-OH; disulfide 1-11) | 116 ± 12 | 128 ± 4 | 114 ± 3 | 90 ± 8 | 100 ± 2 | – | – | – | – | – | – | –
KASQDVSTTVA [NT-1] | – | – | – | – | – | 73 ± 6 | 100 ± 2 | 97 ± 2 | – | – | – | –
CN[C@H](CC(=O)O)C(=O)O [NMDA, N-methyl-D-aspartate] | – | – | – | – | – | – | – | – | – | about 7 nA | – | –
C[C@@H](O)[C@H](N)C(=O)N1CCC[C@H]1C(=O)N1CCC[C@H]1C(=O)N[C@H](C(=O)O)[C@@H](C)O [NT-13, Thr-Pro-Pro-Thr] (H-TPPT-OH) | 117 ± 7 | 129 ± 10 | 110 ± 10 | 103 ± 8 | 97 ± 8 | – | – | – | – | – | – | –
C[C@@H](O)[C@H](NC(=O)[C@@H]1CCCN1C(=O)[C@@H]1CCCN1)C(=O)O [NT-15, Pro-Pro-Thr] (H-Pro-Pro-Thr-OH) | 93 ± 1 | 108 ± 12 | 100 ± 7 | 103 ± 2 | 99 ± 21 | – | – | – | – | – | – | –
NCC(=O)O [glycine] | – | – | – | – | – | – | – | – | – | – | about 284 nA | –
SQQHYSTPPTS [NT-11] | 127 ± 21 | 120 ± 11 | 118 ± 4 | 111 ± 4 | 96 ± 23 | – | – | – | – | – | – | –
N[C@@H]1CONC1=O [D-cycloserine] | – | – | – | – | – | – | – | – | – | – | – | doubled
